Data as given in patent US9000027B2, “Chk1 suppresses a caspase-2 apoptotic response to DNA damage that bypasses p53, bcl-2 and caspase-3” (Dana-Farber Cancer Institute, Inc., priority 2008, dated 2015).
“Also recorded” adds a separate entry of the source.

Legend:
[1] = test system: p53^e7/e7;chk1^MO cells grafted into p53^e7/e7 hosts; assay: Blastula-cell transplantation (genetic chimeras), TUNEL after IR; format: in vivo, zebrafish; details: 12.5 Gy, n=102
Excerpt: To determine whether the Chk1-antagonized pathway functions cell autonomously or non-cell autonomously, we generated genetic chimeras (see cell transplantation procedure in FIG. 3D and assay validation in FIG. 14). While p53^e7/e7;chk1^MO cells grafted into p53^e7/e7 hosts often stained TUNEL-positive after IR (39%, n=102), neighboring host cells were virtually never seen that stained TUNEL-positive (FIG. 3E, upper panels). In the reciprocal experiment, p53^e7/e7 cells transplanted into p53^e7/e7;chk1^MO hosts remained TUNEL-negative within an otherwise TUNEL-positive environment (FIG. 3E, lower panels). Therefore, IR-induced TUNEL reactivity of transplanted cells strictly depends on Chk1 dosage, occurs irrespective of the cellular environment, and has very little, if any, influence on neighboring cells. The Chk1-suppressed apoptotic pathway thus functions in a cell-autonomous manner.
Zebrafish embryos were fixed in 4% paraformaldehyde (PFA) overnight at 4° C. and subsequently stored in methanol at −20° C. for at least 2 hr. After rehydration at room temperature in PBST (1×PBS, 0.1% Tween-20), embryos were treated with proteinase K (10 μg/mL) in PBS for 15 min, followed by a 20-min postfix in 4% PFA at room temperature. […] Tagged DNA was detected with sheep anti-digoxigenin-fluorescein or sheep anti-digoxigenin-rhodamine conjugated Fab fragments. […]

p53 mutant embryos = assay: Live acridine orange (AO) assay of IR-induced cell death in inhibitor-treated p53 mutant embryos; format: in vivo, zebrafish
Excerpt: Chk1 inhibitors hold considerable promise in cancer therapy, as they are expected to synergize with genotoxic agents to kill tumor cells lacking functional p53, without affecting normal cells (Kawabe, 2004; Zhou and Bartek, 2004). […] Gö6976 has not been tested in vivo in a vertebrate model system. We therefore evaluated it as well as specific Chk2 and ATM inhibitors in the zebrafish system. Drug toxicity was monitored by scoring the AO reactivity of inhibitor-treated, but non-irradiated, p53^+/+ embryos (left column in FIG. 8A). Unless otherwise indicated, the inhibitors were applied at 18 hpf (that is, immediately before IR) for a total of 6 hours.
Live zebrafish embryos were dechorionated in pronase (2.0 mg/mL in egg water) for 3 to 5 min and rinsed five times in egg water at 18 hpf. Embryos were then γ-irradiated (12.5 Gy) using a ^137Cs-irradiator (Gammacell 1000) at 18 hr post-fertilization (hpf). At 24 hpf, embryos were incubated in […] Acridine Orange (AO; Sigma A-6014) in egg water for 30 min at 28.5° C., followed by 3 quick rinses and three 10-min washes in egg water. 5-10 AO-treated embryos were anesthetized in Tricaine ([…]; 3-amino benzoic acid ethylester from Sigma, A-5040) and mounted laterally on a glass slide in warm 0.5% agarose in egg water by streaking a thin layer of the warm agarose across the surface of the slide, and gently pulling the embryos across the agar with a transfer pipette. Lateral images of each zebrafish were acquired on a Zeiss Axioplan2 fluorescence microscope (5× lens), using OpenLab software and a Hammamatsu C4742-95 digital camera. All images were then converted to 8-bit grayscale in NIH ImageJ using the Image>Type>8-bit command. Next, we cropped the images using the Polyonal Selection tool and the Image>Crop functions to include only the trunk of the animal from the head until the beginning of the yolk tube (MO screen; FIG. 1B) or along the entire spinal cord (epistasis analyses; FIGS. 6A & 6D). The area outside of the selected region of interest was cleared using the Edit>Clear Outside command to create a distinct boundary around the area of interest (this is important as it allows the area of interest to be precisely selected after applying the threshold). Next, we split the acquired images into features of interest and background using the Image>Adjust>Threshold function in NIH ImageJ. We then set the maximum threshold of each image to 255 (the lower slide bar in the Threshold window), and adjusted the minimum threshold to the optimized threshold (see below). The threshold was applied using the Black & White display option, with the following Lut options applied; Thresholded pixels to foreground color; Remaining pixels to background color and Black foreground, white background. […] Next, we re-selected the region of interest on the thresholded image, following the bounded image carefully, and analyzed the pixels of the image using the Analyze>Analyze Particles function. The Minimum Size was set to 1px, the Maximum Size was set to the maximum value of 999999 and the Masks option was selected under the Show pull-down menu. The following extended options were also selected: Display Results; Clear Results; Summarize, Size Distribution and Record Starts. If selected by default, the Exclude on Edges option was deselected. The Area Fraction for each image selection was taken from the Summary window, which is the percentage of pixels in the selection that were black. To ensure valid comparisons of the AO labeling results across all experiments, we quantitatively determined a baseline Area Fraction across a large set of simultaneously irradiated and processed p53^+/+ embryos. […] This analysis yielded a mean value for the total labeled surface area of ˜20% (see FIG. 1B, light gray bar). We included at least 6 p53^+/+ non-injected control embryos in all subsequent AO-labeling experiments. […]

| Compound | grafted cells staining TUNEL-positive after IR [1] | Gö6976-treated p53 mutants showing a marked IR-response recovery (p53 mutant embryos; 1 μM, 12.5 Gy IR at 18 hpf, n=210) | radiosensitization of p53 mutants (IR-induced AO labeling) (p53 mutant embryos; 12.5 Gy at 18 hpf, Gö6976 1 μM, KU55933 10 μM, Chk2 Inhibitor II 10 μM, 6 hr) | exposure immediately after IR sufficient to phenocopy chk1 MO knockdown (p53 mutant embryos; p53 mutant embryos) | AO staining response versus p53 mutant response (p53 mutant embryos; p53 mutants treated with Gö6976 for 6 hours, IR) |
| --- | --- | --- | --- | --- | --- |
| chk1 MO: morpholino against zebrafish chk1 atg/5'UTR, aggcacagccattatgcaatcttcg (SEQ ID NO: 11) (AGGCACAGCCATTATGCAATCTTCG; all phosphorodiamidate morpholino (PMO)) | 39% |  |  |  |  |
| Cn1c2ccccc2c2c3c(c4c5ccccc5n(CCC#N)c4c21)CNC3=O [Gö6976] |  | 95% | restored a complete response to IR; also recorded: restored IR-induced cell death with complete penetrance | 1.5 h | ~500 fold |
